A value given as a limit tells only on which side of the number the result lay.

The first assay can be described thus: Affinity towards Asialoglycoprotein receptor using in vitro competition assay for [125I]- ASOR binding to the parenchymal liver cells of rat.
On to `COC(=O)CCCCC(=O)NCC(=O)NC(CO[C@@H]1O[C@H](CO)[C@H](O)[C@H](O)[C@H]1O)(CO[C@@H]1O[C@H](CO)[C@H](O)[C@H](O)[C@H]1O)CO[C@@H]1O[C@H](CO)[C@H](O)[C@H](O)[C@H]1O`, for which the inhibition constant Ki is greater than 390 µM.

In turn, `CC(C)CCC[C@@H](C)[C@H]1CC[C@H]2[C@@H]3CC=C4C[C@@H](OC(=O)CCC(=O)NCC(=O)NC(CO[C@@H]5O[C@H](CO)[C@H](O)[C@H](O)[C@H]5O)(CO[C@@H]5O[C@H](CO)[C@H](O)[C@H](O)[C@H]5O)CO[C@@H]5O[C@H](CO)[C@H](O)[C@H](O)[C@H]5O)CC[C@]4(C)[C@H]3CC[C@]12C` registered a Ki of 14 µM. On the same count and under the same terms, in the case of `COC(=O)CCCCC(=O)NCC(=O)NC(COCOCCOCCOCCOCCO[C@H]1O[C@@H](CO)[C@@H](O)[C@@H](O)[C@@H]1O)(COCOCCOCCOCCOCCO[C@H]1O[C@@H](CO)[C@@H](O)[C@@H](O)[C@@H]1O)COCOCCOCCOCCOCCO[C@H]1O[C@@H](CO)[C@@H](O)[C@@H](O)[C@@H]1O` it was 0.2 µM; in that of `COC(=O)CCCCC(=O)NCC(=O)NC(COCOCCOCCO[C@@H]1O[C@H](CO)[C@H](O)[C@H](O)[C@H]1O)(COCOCCOCCO[C@@H]1O[C@H](CO)[C@H](O)[C@H](O)[C@H]1O)COCOCCOCCO[C@@H]1O[C@H](CO)[C@H](O)[C@H](O)[C@H]1O`, 11 µM; in that of `COC(=O)CCCCC(=O)NCC(=O)NC(COCOCCO[C@@H]1O[C@H](CO)[C@H](O)[C@H](O)[C@H]1O)(COCOCCO[C@@H]1O[C@H](CO)[C@H](O)[C@H](O)[C@H]1O)COCOCCO[C@@H]1O[C@H](CO)[C@H](O)[C@H](O)[C@H]1O`, 19 µM.

Consider `COC(=O)CCCCC(=O)NCC(=O)NC(COCOCCCO[C@@H]1O[C@H](CO)[C@H](O)[C@H](O)[C@H]1O)(COCOCCCO[C@@H]1O[C@H](CO)[C@H](O)[C@H](O)[C@H]1O)COCOCCCO[C@@H]1O[C@H](CO)[C@H](O)[C@H](O)[C@H]1O`, for which the affinity, expressed as Ki, was 1.2 µM. The same measure, in the same setting: with `CC(=O)N[C@@H]1[C@@H](O)[C@@H](O)[C@@H](CO)O[C@H]1O` the figure was 870 µM.

A further assay in a line: Affinity towards Asialoglycoprotein receptor using in vitro competition assay for [125I]- ASOR binding to the parenchymal liver cells of rabbit. Set-up: species or system Oryctolagus cuniculus.
For `COC(=O)CCCCC(=O)NCC(=O)NC(CO[C@@H]1O[C@H](CO)[C@H](O)[C@H](O)[C@H]1O)(CO[C@@H]1O[C@H](CO)[C@H](O)[C@H](O)[C@H]1O)CO[C@@H]1O[C@H](CO)[C@H](O)[C@H](O)[C@H]1O`, the affinity, expressed as Ki, was 150 µM.

Usually Ki stands for the dissociation constant of the complex between target and ligand, obtained from inhibition or displacement.
